Results on twelve molecules are retold here after ChEMBL document CHEMBL1201862, “PubChem BioAssay data set” (2004).

Among the test systems are TK-10; OVCAR-3; OVCAR-5; OVCAR-8; MDA-MB-231; SN12C; SF-295; T47D; SNB-75; HL-60; HCC 2998; HOP-92; SNB-19; COLO 205; MDA-MB-435; SK-MEL-5; PC-3; HT-29; NCI-H226.
Common to all, as to test: inhibition of tumour cell growth, NCI panel, 48 h

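Grown in 96-well plates, cells were treated for 48 hours with each compound at five concentrations. Insufficient inhibition: endpoint recorded as highest concentration tested. At the GI50, growth is halved.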 Calls of active or inactive are those of the source. Cut-off read from the data, not from the text of the source: active = GI50 up to about 1.1 µM and inactive = higher. Where a SMILES comes first, the peptide text is derived from it.

Regarding `O=C(O)CCCc1nc2c(n1Cc1ccccc1)C(=O)c1ccccc1C2=O`, the GI50 in the experiment with TK-10 was > 100 µM (inactive); in the experiment on OVCAR-3, 21.5 µM (inactive); in the experiment on OVCAR-5, 76.9 µM (inactive); in the experiment with OVCAR-8 it was 36.6 µM (inactive); in the experiment on MDA-MB-231, 47.9 µM (inactive); with SN12C, 36.9 µM (inactive). Besides, the GI50 in the experiment with SF-295 is 25.8 µM (inactive); with T47D, 60.5 µM (inactive); in the experiment with SNB-75 it was > 10 µM (inactive); in the experiment with HL-60, 29.1 µM (inactive); in the experiment on HCC 2998 it was 56.2 µM (inactive); in the experiment with HOP-92, 48.9 µM (inactive). Also, the GI50 in the experiment on SNB-19 is > 100 µM (inactive); with COLO 205, 34.2 µM (inactive).

As for `CCOC(=O)c1nnc2c(C(=O)OCC)c3ccccc3n2c1N`, the GI50 was 7.91 µM (inactive) in the experiment on TK-10; 4.46 µM (inactive) in the experiment with OVCAR-3; > 100 µM (inactive) in the experiment with OVCAR-5; 5.16 µM (inactive) in the experiment on OVCAR-8; 19.8 µM (inactive) with MDA-MB-231; 6.67 µM (inactive) in the experiment with SN12C. Moreover, the GI50 in the experiment with MDA-MB-435 was 5.05 µM (inactive); in the experiment with SF-295 it was 26.9 µM (inactive); in the experiment with T47D it was 29.9 µM (inactive); in the experiment with SNB-75, 11 µM (inactive); in the experiment on SK-MEL-5 it was 5.52 µM (inactive); in the experiment on HL-60, 2.15 µM (inactive). Moreover, the GI50 was 5.35 µM (inactive) in the experiment with PC-3; 22.8 µM (inactive) with HT-29; 34 µM (inactive) in the experiment on HCC 2998; 4.93 µM (inactive) with SNB-19; 10.2 µM (inactive) with COLO 205.

For the molecule `NN(CC(=O)O)CC(=O)O`, the GI50 in the experiment with TK-10, with OVCAR-3, in the experiment with OVCAR-5, in the experiment on OVCAR-8, with MDA-MB-231 and with SN12C was > 100 µM (inactive) in each case. In addition, the GI50 in the experiment on MDA-MB-435, in the experiment on SF-295, in the experiment on T47D, in the experiment on SK-MEL-5, with HL-60 and in the experiment on NCI-H226 was > 100 µM (inactive) each time. Besides, the GI50 with PC-3, in the experiment on HT-29, with HCC 2998, with SNB-19 and with COLO 205 was > 100 µM (inactive) in each case.

Regarding `COc1cc(/C=C/C(=O)OCCc2ccccc2)ccc1O`, the GI50 was 15.1 µM (inactive) in the experiment with TK-10; 18.1 µM (inactive) in the experiment with OVCAR-3; 18.2 µM (inactive) in the experiment on OVCAR-5; 28.5 µM (inactive) in the experiment with OVCAR-8; 14.2 µM (inactive) in the experiment with MDA-MB-231; 19.8 µM (inactive) in the experiment with SN12C. The GI50 in the experiment with MDA-MB-435 was 13.4 µM (inactive); in the experiment on SF-295 it was 17.3 µM (inactive); in the experiment with T47D, 13.5 µM (inactive); in the experiment on SNB-75 it was 15.2 µM (inactive); with SK-MEL-5, 19.5 µM (inactive); with HL-60, 0.352 µM (active). For the same molecule, the GI50 in the experiment with PC-3 is 14.2 µM (inactive); with HT-29, 21.3 µM (inactive); in the experiment on HCC 2998 it was 21 µM (inactive); in the experiment with SNB-19, 17.9 µM (inactive); with COLO 205, 19.4 µM (inactive).

Take `NC(=O)C1CCCN1C(=O)C(N)Cc1ccccc1` (stereo not drawn) (H-Phe-Pro-NH2; configuration not given here): the GI50 with TK-10, in the experiment on OVCAR-3, with OVCAR-5, with OVCAR-8, in the experiment on MDA-MB-231 and in the experiment with MDA-MB-435 was > 100 µM (inactive) each time. Moreover, the GI50 in the experiment with SF-295, in the experiment with T47D, with SK-MEL-5, in the experiment on HL-60, with PC-3 and in the experiment on HT-29 was > 100 µM (inactive) in each case. In addition, the GI50 in the experiment on HCC 2998, in the experiment with SNB-19 and in the experiment on COLO 205 was > 100 µM (inactive) throughout.

Consider `CC1(C)COC(c2cccc(C(=O)c3ccccc3)c2)=N1`, for which the GI50 was 90.6 µM (inactive) in the experiment with TK-10; 24.7 µM (inactive) in the experiment on OVCAR-3; > 100 µM (inactive) in the experiment with OVCAR-5; 48.5 µM (inactive) with OVCAR-8; 33.4 µM (inactive) with MDA-MB-231; 32 µM (inactive) in the experiment with SN12C. Further, the GI50 with SF-295 is 40.7 µM (inactive); in the experiment on T47D, 25.7 µM (inactive); with SK-MEL-5, 17.1 µM (inactive); in the experiment with HL-60 it was 18.6 µM (inactive); in the experiment on PC-3, 38.9 µM (inactive); in the experiment with HT-29, 33.1 µM (inactive). Moreover, the GI50 was 57.9 µM (inactive) in the experiment with HCC 2998, 25.9 µM (inactive) with HOP-92, 51.4 µM (inactive) in the experiment with SNB-19 and 56.9 µM (inactive) with COLO 205.

Turning to `COc1ccc(C2CC(=O)CC(c3ccc(OC)cc3)C23C(=O)NC(=S)NC3=O)cc1` (stereo unspecified), the GI50 in the experiment with TK-10, with OVCAR-3, in the experiment with OVCAR-5, with OVCAR-8, with SN12C and in the experiment with MDA-MB-435 was > 100 µM (inactive) throughout. For the same molecule, the GI50 in the experiment on SF-295, in the experiment with T47D, with SNB-75, in the experiment on SK-MEL-5, in the experiment with HL-60 and in the experiment on NCI-H226 was > 100 µM (inactive) throughout. Also, the GI50 in the experiment with PC-3, with HT-29, with HCC 2998, in the experiment with HOP-92, in the experiment on SNB-19 and in the experiment with COLO 205 was > 100 µM (inactive) in each case.

As for `CCOC(=O)c1nnsc1NN`, the GI50 in the experiment with TK-10 was > 100 µM (inactive); in the experiment with OVCAR-3 it was > 100 µM (inactive); in the experiment with OVCAR-5, > 100 µM (inactive); in the experiment with OVCAR-8, > 100 µM (inactive); in the experiment on MDA-MB-231, 53.8 µM (inactive); in the experiment on SN12C, > 100 µM (inactive). Moreover, the GI50 in the experiment with MDA-MB-435 is > 100 µM (inactive); with SF-295, > 100 µM (inactive); in the experiment with SNB-75 it was > 100 µM (inactive); in the experiment with SK-MEL-5, > 100 µM (inactive); in the experiment with HL-60 it was 10.5 µM (inactive); in the experiment on NCI-H226 it was > 100 µM (inactive). Moreover, the GI50 with PC-3 is > 100 µM (inactive); in the experiment with HT-29 it was 55.5 µM (inactive); in the experiment with HCC 2998, > 100 µM (inactive); in the experiment on HOP-92, > 100 µM (inactive); in the experiment with SNB-19 it was > 100 µM (inactive); in the experiment with COLO 205, > 100 µM (inactive).

On to `C#CCOCCCC(=O)O`, for which the GI50 in the experiment with TK-10, with OVCAR-3, in the experiment on OVCAR-5, in the experiment with OVCAR-8, with MDA-MB-231 and in the experiment on SN12C was > 100 µM (inactive) in each case. In addition, the GI50 in the experiment with SF-295, with T47D, in the experiment on SNB-75, in the experiment on SK-MEL-5, in the experiment on HL-60 and in the experiment with NCI-H226 was > 100 µM (inactive) each time. Moreover, the GI50 with PC-3, in the experiment on HT-29, with HOP-92, in the experiment with SNB-19 and in the experiment on COLO 205 was > 100 µM (inactive) throughout.

For `NCCCCC(N)C(=O)N1CCN(c2nc(N3CCCC3)c3nc(Cl)c(NCc4ccccc4)nc3n2)CC1` (stereo unspecified), the GI50 in the experiment with TK-10 is 19.2 µM (inactive); with OVCAR-3, 18.9 µM (inactive); in the experiment on OVCAR-5, 19.1 µM (inactive); with OVCAR-8 it was 14 µM (inactive); in the experiment on MDA-MB-231 it was 18.1 µM (inactive); in the experiment on SN12C, 18.4 µM (inactive). In addition, the GI50 in the experiment with MDA-MB-435 was 23.2 µM (inactive); in the experiment with SF-295, 18.5 µM (inactive); with SNB-75, 16.6 µM (inactive); in the experiment with SK-MEL-5, 18.1 µM (inactive); in the experiment with HL-60 it was 17 µM (inactive); with NCI-H226, 20.8 µM (inactive). In addition, the GI50 was 17.8 µM (inactive) with PC-3; 18.9 µM (inactive) in the experiment with HT-29; 19.1 µM (inactive) with HCC 2998; 10.3 µM (inactive) in the experiment on HOP-92; 17.1 µM (inactive) in the experiment on SNB-19; 17.4 µM (inactive) in the experiment with COLO 205.

Turning to `Cc1nc(C(N)=S)sc1C(=O)C/C(=N/N)C(=O)Nc1ccc(Cl)cc1`, the GI50 in the experiment on TK-10 was > 100 µM (inactive); in the experiment with OVCAR-3, 37.5 µM (inactive); in the experiment with OVCAR-5, > 100 µM (inactive); in the experiment with OVCAR-8, 84.1 µM (inactive); with MDA-MB-231, > 100 µM (inactive); in the experiment on SN12C, > 100 µM (inactive). Moreover, the GI50 with MDA-MB-435 is > 100 µM (inactive); in the experiment on SF-295 it was 84.9 µM (inactive); in the experiment with T47D, 46.1 µM (inactive); in the experiment with SNB-75, > 100 µM (inactive); in the experiment on SK-MEL-5, 90.2 µM (inactive); in the experiment on NCI-H226, > 100 µM (inactive). Further, the GI50 in the experiment on PC-3 is 72.9 µM (inactive); in the experiment on HT-29 it was 58.3 µM (inactive); in the experiment with HCC 2998, > 100 µM (inactive); with SNB-19, 72.4 µM (inactive).

Take `C/C(Cl)=N/OC(=O)Nc1ccc(F)c([N+](=O)[O-])c1`: the GI50 in the experiment on TK-10 was 6.1 µM (inactive); in the experiment with OVCAR-3, 19.2 µM (inactive); in the experiment with OVCAR-5 it was 24.2 µM (inactive); in the experiment on OVCAR-8, 8.91 µM (inactive); in the experiment with MDA-MB-231, 17.5 µM (inactive); in the experiment with SN12C it was 7.57 µM (inactive). Besides, the GI50 was 14.5 µM (inactive) with MDA-MB-435; 31.1 µM (inactive) in the experiment with SF-295; 1.71 µM (inactive) in the experiment with SNB-75; 14 µM (inactive) in the experiment with SK-MEL-5; 1.94 µM (inactive) in the experiment with HL-60; 26.4 µM (inactive) with NCI-H226. Moreover, the GI50 with PC-3 was 17.8 µM (inactive); in the experiment with HT-29, 19.6 µM (inactive); with HCC 2998 it was 37.3 µM (inactive); with HOP-92 it was 5.4 µM (inactive); in the experiment on SNB-19, 20.1 µM (inactive); in the experiment with COLO 205, 2.34 µM (inactive).
